These results are taken from patent publication US9421237B2, “Tripeptide boronic acid or boronic ester, preparative method and use thereof” (PEKING UNIVERSITY, priority 2009, dated 2016).

In series [1] the target is T1, 20S proteasome extracted from rat liver, chymotryptic-like (CT-L) activity (Rattus norvegicus, UniProt P18421+P28075).
T1 construct: 20S proteasome extracted from rat liver; from tissue; host or cells: rat liver
As to the kind of experiment: Proteasome inhibition, chymotryptic-like (CT-L) activity, fluorescent peptide Suc-leu-leu-Val-Tyr-AMC. The series is classed as biochemical. The settings on record: rat liver 20S proteasome, 37° C., 1 h. A digest of the protocol: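 Rat liver 20S proteasome (1 μg) incubated 1 h at 37° C with compounds and 50 μM Suc-Leu-Leu-Val-Tyr-AMC in 20 mM Tris-HCl.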

Series [2] concerns the target T2, 20S proteasome extracted from rat liver, trypsin-like (TL) activity (Rattus norvegicus, UniProt P40112+Q9JHW0).
T2 construct: 20S proteasome extracted from rat liver; from tissue; host or cells: rat liver
Kind of series: Proteasome inhibition, trypsin-like (TL) activity, fluorescent peptide Z-Ala-Arg-Arg-AMC. It counts as biochemical. The settings on record: rat liver 20S proteasome, 37° C., 1 h; read-out: T-L (IC50). A digest of the protocol:
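Rat liver 20S proteasome (1 μg) incubated 1 h at 37 °C with compounds, 50 μM fluorogenic peptide and 20 mM Tris-HCl. AMC release read at 380/440 nm and βNA release at 335/410 nm. Inhibition rate calculated against a 0.1% DMSO solvent control.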

In series [3] the test system is HL-60, BXPC-3, U266 and BGC-823 cells. Kind of series: In vitro anti-tumor activity (IC50), summary over the four tumor cell lines. It counts as cell-based. The source says: According to the results of aforementioned preliminary anti-tumor activities screening tests, those compounds which have better anti-tumor activities were selected to measure their IC50 values on four types of tumor cell lines: HL-60 (promyelocytic leukemia cell strain), BXPC-3 (human pancreatic cancer cell strain), U266 (multiple myeloma cell strain) and BGC-823 (human gastric carcinoma cell strain). HL-60, BXPC-3 and U266 were obtained from the American Type Culture Collection (Manassas, Va.), and BGC-823 (human gastric carcinoma cell strain) was obtained from China Pharmaceutical University.
Test methods: HL-60 cells were cultured in IMDM medium containing 20% fetal bovine serum at 37° C. in 5% CO2; BGC-823 cells and BXPC-3 cells were cultured in RPMI1640 medium containing 10% fetal bovine serum at 37° C. in 5% CO2; U266 cells were cultured in RPMI1640 medium containing 15% fetal bovine serum at 37° C. in 5% CO2.
The cell growth was measured by the standard MTT method. […] The precipitates were dissolved in 100 μL of DMSO, and absorbance was read with an Infinite M200 (Tecan, Austria) microplate reader at 540 nm.
The result was expressed as IC50 value, which is the average value of three independent determinations.

For orientation: IC50 means the concentration that gives 50% inhibition. As a reminder, the melting point is the temperature of the solid-liquid transition.

Regarding `CC(C)C[C@H](NC(=O)[C@H](Cc1ccc2ccccc2c1)NC(=O)[C@H](Cc1ccccc1)NC(=O)c1cnccn1)B(O)O` [Compound 6g, N-pyrazineformyl-L-phenylalanyl-L-naphthylalanyl-L-leucine Boronic Acid], the IC50 in series [1] was 0.111 ± 0.05 nM; in series [2] it was greater than 20 nM.

In turn, `CC(C)C[C@H](NC(=O)[C@H](Cc1ccc2ccccc2c1)NC(=O)[C@H](CC(C)C)NC(=O)c1cnccn1)B(O)O` [Compound 6f, N-pyrazineformyl-L-leucyl-L-naphthylalanyl-L-leucine Boronic Acid] showed a melting point of 157 to 159 °C. In series [1], it took 0.079 ± 0.011 nM to reach half-maximal inhibition (IC50). For the same compound, the “Inhibition of growth of three types of cells, compared with PS341” value in series [3] is reported as “better than those of PS341”. Besides, the IC50 in series [2] was greater than 20 nM.
